Measurements taken from ChEMBL document CHEMBL1795224, “Synthesis, in vitro antioxidant, anthelmintic and molecular docking studies of novel dichloro substituted benzoxazole-triazolo-thione derivatives” (2011).
Activity calls are given as the source filed them. The calls are words filed in the database; no cut-off is given here.

Experiments:
Type in all cases: functional
Metaphire posthuma [1] = experiment: Anthelmintic activity against Pheretima posthuma assessed as death time at 2 %
Metaphire posthuma [2] = experiment: Anthelmintic activity against Pheretima posthuma assessed as death time at 1 %
Metaphire posthuma [3] = experiment: Anthelmintic activity against Pheretima posthuma assessed as time taken for complete paralysis
Metaphire posthuma [4] = experiment: Anthelmintic activity against Pheretima posthuma assessed as death time
Metaphire posthuma [5] = experiment: Anthelmintic activity against Pheretima posthuma assessed as death time at 3 %
Metaphire posthuma [6] = experiment: Anthelmintic activity against Pheretima posthuma assessed as time taken for complete paralysis at 2 %
Metaphire posthuma [7] = experiment: Anthelmintic activity against Pheretima posthuma assessed as time taken for complete paralysis at 3 %
[8] = Antioxidant activity assessed as ascorbic acid equivalent antioxidant capacity at 50 to 100 ug after 90 mins by phosphomolybdenum method
Metaphire posthuma [9] = experiment: Anthelmintic activity against Pheretima posthuma assessed as time taken for complete paralysis at 1 %
[10] = system: Radical scavenging activity; experiment: Antioxidant activity assessed as DPPH free radical scavenging activity at 20 ug/4ml after 30 mins
[11] = Antioxidant activity assessed as potassium ferric cyanide ion reducing power at 50 to 100 ug after 20 mins

Row | SMILES | Time (Metaphire posthuma [1]) [min] | Time (Metaphire posthuma [2]) [min] | Activity (Metaphire posthuma [3]) | Time (Metaphire posthuma [4]) [min] | Time (Metaphire posthuma [5]) [min] | Time (Metaphire posthuma [6]) [min] | Activity (Metaphire posthuma [7]) | Activity [8] | Time (Metaphire posthuma [9]) [min] | Activity [10] [%] | Activity [11]
1 | NNc1nc2cc(Cl)cc(Cl)c2o1 | 4.22 | 4.77 | Dose-dependent effect | 4.42 | 3.23 | 3.08 | Dose-dependent effect | Active | 3.57 | 81.5 | Active
2 | Cc1cc(C(C)(C)C)c(O)c(C(C)(C)C)c1 | – | – | – | – | – | – | – | – | – | 16.2 | –
3 | CCCSc1ccc2[nH]c(NC(=O)OC)nc2c1 [ALBENDAZOLE] | – | 7.2 | – | 5.37 | – | – | – | – | – | – | –
4 | CCOC(=O)CSc1nc2cc(Cl)cc(Cl)c2o1 | 6.37 | 7.23 | Dose-dependent effect | 6.61 | 5.75 | 5.28 | Dose-dependent effect | – | 5.87 | 9.49 | inactive
5 | Sc1nc2cc(Cl)cc(Cl)c2o1 | 7.83 | 9.05 | Dose-dependent effect | 8.22 | 5.95 | 3.2 | Dose-dependent effect | – | 7.27 | 32.1 | inactive
6 | S=c1[nH]nc2oc3c(Cl)cc(Cl)cc3n12 | 5.49 | 6.48 | Dose-dependent effect | 5.48 | 4.12 | 3.82 | Dose-dependent effect | Active | 4.29 | 74.8 | Active
7 | O=[N+]([O-])c1ccc(NCn2nc3oc4c(Cl)cc(Cl)cc4n3c2=S)cc1 | 7.07 | 8.33 | Dose-dependent effect | 7.95 | 6.64 | 5.97 | Dose-dependent effect | Active | 6.58 | 18 | Active
8 | CCOC(=O)CSc1nnc2oc3c(Cl)cc(Cl)cc3n12 | 5.95 | 6.13 | Dose-dependent effect | 5.92 | 4.85 | 4 | Dose-dependent effect | Active | 4.74 | 65.7 | Active
